# Test results as given in PubChem BioAssay (NCI).
# Values joined by “and” are separate entries in the source; they are usually repeats but may differ in a detail not shown here. Identical values can stand only once.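 Five compound concentrations were applied to cells in 96-well plates for 48 hours; endpoints were derived by simple linear interpolation of the resulting dose-response curve. GI50: concentration for 50% inhibition of growth. TGI marks complete inhibition of growth.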
# Experiments:
# Assay in all cases: NCI-60 cell line screen, 48 h
# SN12C renal = system: SN12C renal
# TK-10 renal = system: TK-10 renal
# UACC-257 melanoma = system: UACC-257 melanoma
# MALME-3M melanoma = system: MALME-3M melanoma
# OVCAR-8 ovarian = system: OVCAR-8 ovarian
# HT29 colon = system: HT29 colon
# SNB-19 CNS = system: SNB-19 CNS
# COLO 205 colon = system: COLO 205 colon
# HL-60(TB) leukemia = system: HL-60(TB) leukemia
# HOP-62 NSCLC = system: HOP-62 NSCLC
SMILES,GI50 (SN12C renal),TGI (SN12C renal),GI50 (TK-10 renal),TGI (TK-10 renal),GI50 (UACC-257 melanoma),TGI (UACC-257 melanoma),GI50 (MALME-3M melanoma),TGI (MALME-3M melanoma),GI50 (OVCAR-8 ovarian),TGI (OVCAR-8 ovarian),GI50 (HT29 colon),TGI (HT29 colon),GI50 (SNB-19 CNS),TGI (SNB-19 CNS),GI50 (COLO 205 colon),TGI (COLO 205 colon),GI50 (HL-60(TB) leukemia),TGI (HL-60(TB) leukemia),GI50 (HOP-62 NSCLC),TGI (HOP-62 NSCLC)
CC1Cc2ccccc2N1C(=O)Cc1nc(N2CCOCC2)cc(=O)[nH]1 (centres undefined),9.39 µM and 13.9 µM,> 100 µM,14.5 µM and 32.1 µM,> 100 µM,15.9 µM and 20.2 µM,> 100 µM,3.18 µM and 7.81 µM,61.9 µM and > 79.1 µM,34.8 µM and 32 µM,> 100 µM,8.25 µM and 34.5 µM,> 100 µM,25.3 µM and 45.8 µM,> 100 µM,17.4 µM and 53.8 µM,46.2 µM and > 100 µM,20.7 µM and 25.5 µM,> 100 µM,53.8 µM and 59.9 µM,> 100 µM
CC/C=C\C[C@H](O)C/C=C1/C(=O)C=C[C@@H]1C/C=C\CCCCO,2.52 µM,6.53 µM,3.31 µM,9.22 µM,2.59 µM,9.36 µM,2.44 µM,7.48 µM,3.24 µM,11.9 µM,2.4 µM,5.62 µM,7.6 µM,23.2 µM,2.45 µM,5.99 µM,2.29 µM,6.88 µM,2.12 µM,5 µM
CN(C)Cc1c(C(=O)NCCOc2ccc(C(=O)NO)cc2)oc2ccccc12,0.459 µM,> 100 µM,0.185 µM,0.88 µM,0.0689 µM,0.592 µM,0.0709 µM,36.2 µM,0.0807 µM,3.99 µM,0.205 µM,1.36 µM,0.453 µM,13.9 µM,0.133 µM,0.282 µM,0.303 µM,2.19 µM,0.247 µM,12.1 µM
[Cu+2].[NH-]C(CC(=O)O)C(=O)O.[NH-]C(CC(=O)O)C(=O)O (centres undefined),> 100 µM,> 100 µM,> 100 µM,> 100 µM,> 100 µM,> 100 µM,> 100 µM,> 100 µM,> 100 µM,> 100 µM,> 100 µM,> 100 µM,49.5 µM,> 100 µM,> 100 µM,> 100 µM,> 100 µM,> 100 µM,> 100 µM,> 100 µM
CC[PH+](CC)CC.CC[PH+](CC)CC.[Au],16.1 µM,31.4 µM,19.9 µM,35.7 µM,11.4 µM,24.4 µM,11.4 µM,24.7 µM,17.9 µM,38.1 µM,16.3 µM,32.4 µM,13.4 µM,26.4 µM,2.52 µM,7.32 µM,0.345 µM,2.09 µM,22 µM,36.6 µM
O=C(O)c1cn(C2CC2)c2cc(N3CCN(Cc4c(O)ccc5ccccc45)CC3)c(F)cc2c1=O,5.38 µM,> 100 µM,2.66 µM,8.38 µM,> 100 µM,> 100 µM,4.07 µM,> 100 µM,4.61 µM,> 100 µM,8.5 µM,> 100 µM,91.5 µM,> 100 µM,5.13 µM,> 100 µM,> 100 µM,> 100 µM,3.99 µM,43.1 µM
COC(=O)[C@@H](C)C[C@H](Cc1ccccc1)NC(=O)c1csc([C@@H](C[C@H](C(C)C)N(C)C(=O)[C@@H](NC(=O)[C@H]2CCCN2C)C2CC2)OC(C)=O)n1,0.000981 µM and 0.0025 µM,> 25 µM,–,> 25 µM,0.22 µM,–,4.41 µM,> 25 µM,0.00262 µM and 0.0025 µM,> 25 µM,0.000503 µM and 0.0025 µM,> 25 µM,0.00125 µM and 0.0025 µM,> 25 µM,0.000874 µM and < 0.0025 µM,0.0117 µM and < 0.0025 µM,0.000219 µM and < 0.0025 µM,0.000738 µM and < 0.0025 µM,0.00255 µM and 0.0025 µM,> 25 µM
O=C(O)Cc1ccc(N=Nc2c(O)c(C(=O)O)cc3ccccc23)cc1,–,> 100 µM,–,> 100 µM,–,> 100 µM,–,> 100 µM,–,> 100 µM,–,> 100 µM,–,> 100 µM,–,> 100 µM,–,> 100 µM,–,> 100 µM
CCOC(=O)C1SC(=Nc2ccc(Cl)cc2Cl)N=C1C (centres undefined),–,> 100 µM,–,> 100 µM,–,> 100 µM,–,> 100 µM,–,> 100 µM,–,> 100 µM,–,> 100 µM,–,> 100 µM,–,> 100 µM,–,> 100 µM
Cn1cc(C2=C(c3cn(CCCCCO)c4ccccc34)C(=O)NC2=O)c2ccccc21,5.55 µM,19.5 µM,6.11 µM,16 µM,9.48 µM,> 25 µM,6.9 µM,16.3 µM,6.3 µM,> 20.2 µM,3.31 µM,13.9 µM,8.41 µM,> 23.2 µM,3.89 µM,11.4 µM,4.08 µM,11.5 µM,5.92 µM,15.6 µM
CN1C(=O)C2(c3ccccc31)C1CC3C(CO1)C1C2C3(CO)CN1C#N (centres undefined),–,> 100 µM,–,> 100 µM,–,> 100 µM,–,> 100 µM,–,> 100 µM,–,> 100 µM,–,> 100 µM,–,> 100 µM,–,> 100 µM,–,> 100 µM
O=C1CC(N2C(=O)/C(=C/C(Cl)=C\c3ccc([N+](=O)[O-])cc3)SC2=S)C(=O)N1c1ccc(O)cc1 (centres undefined),1.6 µM,5.88 µM,1.92 µM,3.79 µM,2.48 µM,9.12 µM,2.31 µM,5.79 µM,2.16 µM,14.2 µM,0.847 µM,8.78 µM,1.34 µM,3.47 µM,1.83 µM,5.04 µM,2.44 µM,9.57 µM,2.26 µM,6.63 µM
CN(C)c1ccccc1[CH2][Ga]([Cl])[CH2]c1ccccc1N(C)C,1.31 µM,2.58 µM,2.16 µM,4.7 µM,1.51 µM,3.05 µM,1.75 µM,3.32 µM,1.47 µM,3.23 µM,0.583 µM,2.82 µM,1.44 µM,2.86 µM,1.04 µM,2.36 µM,2.7 µM,5.36 µM,1.21 µM,2.57 µM
Cc1ccccc1C(C(=O)NC1CCCCC1)N(C(=O)CNc1ccc(C#N)cc1)c1cccc(F)c1 (centres undefined),29.7 µM,> 100 µM,24 µM,71.7 µM,50 µM,> 100 µM,15.7 µM,> 91.3 µM,10.6 µM,> 100 µM,> 100 µM,> 100 µM,9.13 µM,37.3 µM,> 83.2 µM,> 100 µM,> 70.5 µM,> 100 µM,3.51 µM,14.4 µM
O=C1C(=O)N(c2ccc(Cl)cc2)C(=O)C(=Nc2cccc3c(=O)[nH][nH]c(=O)c23)C1c1nc2ccccc2o1 (centres undefined),–,> 100 µM,–,> 100 µM,–,> 100 µM,–,> 100 µM,–,> 100 µM,–,> 100 µM,–,> 100 µM,–,> 100 µM,–,> 100 µM,–,> 100 µM
Nc1nn(C(=O)Nc2c(F)cccc2F)c2ccccc12,> 100 µM,> 100 µM,> 100 µM,> 100 µM,71.7 µM,> 100 µM,> 100 µM,> 100 µM,44.2 µM,> 100 µM,74.6 µM,> 100 µM,> 100 µM,> 100 µM,> 100 µM,> 100 µM,33.2 µM,> 100 µM,51 µM,> 100 µM
CN(/N=C\c1ccnc2ccccc12)c1ccccc1,–,> 100 µM,–,98.7 µM,–,42.6 µM,–,52.8 µM,–,> 100 µM,–,35.9 µM,–,> 100 µM,–,39.8 µM,–,39.2 µM,–,81.6 µM
Cc1ccc(C2=Nc3ccccc3S(=O)C(c3ccc4c(c3)OCO4)C2)cc1 (centres undefined),–,33.5 µM,–,> 100 µM,–,88.4 µM,–,> 100 µM,–,46.9 µM,–,31.5 µM,–,> 100 µM,–,> 100 µM,–,59.1 µM,–,> 100 µM
COC(=O)c1oc2c(C(=O)/C=C/c3ccc(OC)cc3)c(OCCN3CCOCC3)ccc2c1C,1.78 µM,5.91 µM,3.31 µM,11.9 µM,1.99 µM,4.25 µM,2.47 µM,6.54 µM,1.8 µM,4.7 µM,1.94 µM,4.48 µM,1.65 µM,4.15 µM,1.58 µM,3.12 µM,1.44 µM,4.29 µM,2.44 µM,6.88 µM
COc1ccc(OC)c(/C=C/c2ccnc3ccccc23)c1,–,17.6 µM,–,16 µM,–,18.8 µM,–,21.5 µM,–,1.88 µM,–,2.35 µM,–,13.2 µM,–,0.863 µM,–,0.977 µM,–,18 µM
Cn1c(=O)c(Oc2ccc(F)cc2F)cc2cnc(NC3CCOCC3)nc21,> 25 µM,> 25 µM,18.6 µM,> 25 µM,> 25 µM,> 25 µM,> 25 µM,> 25 µM,> 25 µM,> 25 µM,> 25 µM,> 25 µM,> 25 µM,> 25 µM,> 25 µM,> 25 µM,> 25 µM,> 25 µM,> 25 µM,> 25 µM
CC1(C)CCC(C)(C)c2cc(NC(=O)c3ccc(C(=O)O)cc3)ccc21,–,93 µM,–,85.3 µM,–,> 100 µM,–,60.1 µM,–,> 100 µM,–,> 95 µM,–,99.3 µM,–,> 55.9 µM,–,> 100 µM,–,> 57.6 µM
CN(C)CCS(=O)(=O)Nc1cc(-c2ccc3ncc(C#N)c(Nc4ccc(F)c(Cl)c4)c3c2)cnc1Cl,0.232 µM,> 100 µM,0.155 µM,0.762 µM,0.273 µM,3.51 µM,0.0788 µM,0.469 µM,0.387 µM,> 32.6 µM,0.388 µM,> 25.9 µM,0.248 µM,2.94 µM,0.188 µM,0.439 µM,0.0708 µM,0.684 µM,0.248 µM,> 22.7 µM
CN(C)C=Nc1c(I)cc(I)c(CCC(=O)O)c1I,> 100 µM,> 100 µM,> 100 µM,> 100 µM,> 100 µM,> 100 µM,> 100 µM,> 100 µM,> 100 µM,> 100 µM,> 100 µM,> 100 µM,> 100 µM,> 100 µM,> 100 µM,> 100 µM,82.9 µM,> 100 µM,> 100 µM,> 100 µM
COc1ccc2c(c1)C(c1cc(OC)c3c(c1)OCO3)C1=C(COC1=O)N2 (centres undefined),0.684 µM,> 100 µM,–,> 77.2 µM,–,> 100 µM,–,> 100 µM,0.504 µM,> 40.7 µM,0.325 µM,–,0.468 µM,> 100 µM,0.277 µM,0.713 µM,0.285 µM,1.07 µM,0.397 µM,> 47.5 µM
